The source of these data is ChEMBL document CHEMBL5230123, “A comprehensive review of monoamine oxidase inhibitors as Anti-Alzheimer's disease agents: A review” (Eur J Med Chem, 2020).

Test [1] addresses T1, Amine oxidase [flavin-containing] B (Rattus norvegicus, UniProt P19643).
T1 sequence (P19643 whole entry): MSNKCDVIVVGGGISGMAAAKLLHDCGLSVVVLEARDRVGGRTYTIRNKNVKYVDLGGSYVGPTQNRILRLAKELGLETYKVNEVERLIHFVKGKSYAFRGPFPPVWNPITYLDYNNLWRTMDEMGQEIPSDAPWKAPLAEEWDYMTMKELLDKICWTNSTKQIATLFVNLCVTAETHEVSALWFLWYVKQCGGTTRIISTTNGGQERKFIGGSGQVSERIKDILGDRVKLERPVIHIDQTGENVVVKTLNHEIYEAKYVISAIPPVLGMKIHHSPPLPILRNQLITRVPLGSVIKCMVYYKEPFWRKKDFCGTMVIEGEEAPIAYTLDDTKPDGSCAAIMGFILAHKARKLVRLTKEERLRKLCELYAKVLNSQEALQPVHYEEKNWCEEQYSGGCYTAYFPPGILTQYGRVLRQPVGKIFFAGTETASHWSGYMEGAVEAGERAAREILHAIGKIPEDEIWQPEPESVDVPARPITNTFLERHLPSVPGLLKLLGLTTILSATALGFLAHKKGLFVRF
Kind of test: Inhibition of rat brain mitochondria MAO-B using p-tyramine as substrate incubated for 15 mins followed by substrate addition and measured for 15 by microplate fluorescence reader analysis.

Test [2] addresses T2, Amine oxidase [flavin-containing] B (Homo sapiens, UniProt P27338).
T2 sequence (P27338 whole entry): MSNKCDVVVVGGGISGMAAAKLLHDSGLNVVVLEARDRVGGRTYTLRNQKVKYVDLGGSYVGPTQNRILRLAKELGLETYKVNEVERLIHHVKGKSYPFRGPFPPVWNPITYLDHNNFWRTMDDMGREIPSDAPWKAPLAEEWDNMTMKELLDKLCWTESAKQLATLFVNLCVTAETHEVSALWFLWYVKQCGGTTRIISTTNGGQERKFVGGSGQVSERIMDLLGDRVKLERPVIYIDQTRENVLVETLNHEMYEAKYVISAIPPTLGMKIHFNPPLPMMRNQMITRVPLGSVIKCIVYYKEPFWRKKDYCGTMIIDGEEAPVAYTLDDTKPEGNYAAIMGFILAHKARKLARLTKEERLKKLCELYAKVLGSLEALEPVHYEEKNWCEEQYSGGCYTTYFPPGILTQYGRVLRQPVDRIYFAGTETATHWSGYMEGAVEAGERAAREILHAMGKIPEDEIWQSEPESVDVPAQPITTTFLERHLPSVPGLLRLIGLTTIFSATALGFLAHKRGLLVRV
Nature of the test: Inhibition of MAO-B (unknown origin) using benzylamine as substrate by spectrophotometric assay.

In test [3] the target is T3, Amine oxidase [flavin-containing] A (Homo sapiens, UniProt P21397).
T3 sequence (P21397 whole entry): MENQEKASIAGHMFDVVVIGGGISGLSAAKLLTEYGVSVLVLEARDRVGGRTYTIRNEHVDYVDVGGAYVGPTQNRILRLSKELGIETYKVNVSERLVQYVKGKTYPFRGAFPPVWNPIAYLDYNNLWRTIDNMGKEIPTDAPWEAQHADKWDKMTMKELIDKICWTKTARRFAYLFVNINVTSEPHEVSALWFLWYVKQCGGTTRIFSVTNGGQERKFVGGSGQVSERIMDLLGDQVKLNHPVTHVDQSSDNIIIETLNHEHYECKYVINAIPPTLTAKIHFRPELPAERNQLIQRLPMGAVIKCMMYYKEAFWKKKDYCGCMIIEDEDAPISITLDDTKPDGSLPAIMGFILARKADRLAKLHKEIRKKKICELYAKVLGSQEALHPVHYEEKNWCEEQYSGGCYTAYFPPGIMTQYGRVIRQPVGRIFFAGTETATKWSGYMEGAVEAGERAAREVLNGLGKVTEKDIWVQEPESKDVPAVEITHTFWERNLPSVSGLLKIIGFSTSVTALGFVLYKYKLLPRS
Kind of test: Inhibition of MAO-A (unknown origin) using kynuramine as substrate by spectrophotometric assay.

The target in test [4] is T3, Amine oxidase [flavin-containing] A. Kind of test: Inhibition of recombinant human MAO-A expressed in insect cells using kynuramine as substrate incubated for 20 mins by Amplex Red reagent based fluorometric method.
In test [5] the target is T2, Amine oxidase [flavin-containing] B. Kind of test: Inhibition of recombinant human MAO-B expressed in insect cells using kynuramine as substrate incubated for 20 mins by Amplex Red reagent based fluorometric method.
The species named for test [6] is Homo sapiens. Kind of test: Selectivity index, ratio of IC50 for inhibition of recombinant human MAO-B to IC50 for inhibition of recombinant human MAO-A.
Test [7] deals with T3, Amine oxidase [flavin-containing] A. Nature of the test: Inhibition of recombinant human MAO-A using kynuramine as substrate incubated for 10 mins followed by substrate addition and measured for 20 mins by Fluorescence microplate reader assay.
Test [8] shares this target. Nature of the test: Inhibition of human MAO-A using p-tyramine as substrate preincubated for 15 mins followed by substrate addition and measured after 30 mins by Ample red assay.
Test [9] has as its target Cholinesterase (Homo sapiens, UniProt P06276). Nature of the test: Inhibition of human BuChE using butyrylthiocholine iodide as substrate preincubated for 30 mins followed by substrate addition and measured after 15 mins by Ellman's method.
For test [10], the target named is Acetylcholinesterase (Homo sapiens, UniProt P22303). Kind of test: Inhibition of recombinant human AChE using acetylcholine as substrate preincubated for 15 mins followed by substrate addition and measured after 30 mins by Amplex Red reagent based fluorescence assay.
In test [11] the target is T4, Acetylcholinesterase (Electrophorus electricus, UniProt O42275). Kind of test: Inhibition of electric eel AChE using acetylthiocholine iodide as substrate incubated for 6 mins followed by substrate addition by DTNB reagent based Ellman's method.
The target of test [12] is T2, Amine oxidase [flavin-containing] B. Nature of the test: Inhibition of recombinant human MAO-B using p-tyramine as substrate incubated for 15 mins followed by substrate addition and measured upto 20 mins by Amplex Red assay.
Test [13] has as its target T3, Amine oxidase [flavin-containing] A. Nature of the test: Inhibition of recombinant human MAO-A using p-tyramine as substrate incubated for 10 mins followed by substrate addition and measured 20 mins by fluorescence assay.
The target in test [14] is T2, Amine oxidase [flavin-containing] B. Nature of the test: Inhibition of recombinant human MAO-B using p-tyramine as substrate incubated for 10 mins followed by substrate addition and measured 20 mins by fluorescence assay.
Test [15] has as its target Cholinesterase (Equus caballus, UniProt P81908). Nature of the test: Inhibition of horse serum BuChE using butyrylthiocholine iodide as substrate preincubated for 5 mins followed by substrate addition and measured for 20 mins by DTNB reagent based Ellman's method.
In test [16] the target is T1, Amine oxidase [flavin-containing] B. Kind of test: Inhibition of MAO-B expressed in Wistar rat liver preincubated for 30 mins followed by 4-(trifluoromethyl) benzylamine addition and measured after 90 mins by microplate reader analysis. It counts as tissue-based.
Test [17] has as its target T4, Acetylcholinesterase. Kind of test: Inhibition of electric eel AChE using acetylthiocholine iodide as substrate preincubated for 5 mins followed by substrate addition and measured for 20 mins by DTNB reagent based Ellman's method.
For test [18], the target named is T2, Amine oxidase [flavin-containing] B. Kind of test: Inhibition of recombinant human MAO-B using kynuramine as substrate incubated for 20 min by fluorescent spectrophotometric assay.
The target is the same in test [19]. Nature of the test: Inhibition of MAO-B (unknown origin) using as tyramine as substrate by Ampliflu red reagent based fluorometric method.
Test [20] has as its target Acetylcholinesterase (Electrophorus electricus) (UniProt O42275). Nature of the test: Inhibition of electric eel AChE using acetylthiocholine iodide as substrate at 1 uM preincubated for 5 mins followed by substrate addition and measured for 20 mins by DTNB reagent based Ellman's method.
Test [21] has as its target T2, Amine oxidase [flavin-containing] B. Nature of the test: Inhibition of recombinant human MAO-B expressed in baculovirus-infected BTI insect cells using p-tyramine as substrate incubated for 45 mins by fluorescence assay.

T4 sequence (O42275 whole entry): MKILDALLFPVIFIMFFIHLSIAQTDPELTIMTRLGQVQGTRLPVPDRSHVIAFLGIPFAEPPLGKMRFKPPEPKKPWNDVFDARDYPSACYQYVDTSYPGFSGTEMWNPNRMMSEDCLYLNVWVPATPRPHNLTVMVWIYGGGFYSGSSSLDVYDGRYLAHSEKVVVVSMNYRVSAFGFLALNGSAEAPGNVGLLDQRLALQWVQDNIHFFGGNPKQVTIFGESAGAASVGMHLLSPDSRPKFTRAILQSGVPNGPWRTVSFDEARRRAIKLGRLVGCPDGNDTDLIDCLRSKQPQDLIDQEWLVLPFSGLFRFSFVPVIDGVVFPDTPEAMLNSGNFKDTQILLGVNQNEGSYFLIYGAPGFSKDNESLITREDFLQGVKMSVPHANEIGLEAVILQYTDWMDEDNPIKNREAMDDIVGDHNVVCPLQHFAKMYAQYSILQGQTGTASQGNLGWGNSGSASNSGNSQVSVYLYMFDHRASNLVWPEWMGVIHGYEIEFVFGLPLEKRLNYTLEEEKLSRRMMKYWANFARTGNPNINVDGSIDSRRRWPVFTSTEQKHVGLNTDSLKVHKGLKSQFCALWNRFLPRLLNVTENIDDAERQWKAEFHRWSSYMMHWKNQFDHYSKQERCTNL
Cholinesterase (Equus caballus, UniProt P81908), sequence (P81908 whole entry): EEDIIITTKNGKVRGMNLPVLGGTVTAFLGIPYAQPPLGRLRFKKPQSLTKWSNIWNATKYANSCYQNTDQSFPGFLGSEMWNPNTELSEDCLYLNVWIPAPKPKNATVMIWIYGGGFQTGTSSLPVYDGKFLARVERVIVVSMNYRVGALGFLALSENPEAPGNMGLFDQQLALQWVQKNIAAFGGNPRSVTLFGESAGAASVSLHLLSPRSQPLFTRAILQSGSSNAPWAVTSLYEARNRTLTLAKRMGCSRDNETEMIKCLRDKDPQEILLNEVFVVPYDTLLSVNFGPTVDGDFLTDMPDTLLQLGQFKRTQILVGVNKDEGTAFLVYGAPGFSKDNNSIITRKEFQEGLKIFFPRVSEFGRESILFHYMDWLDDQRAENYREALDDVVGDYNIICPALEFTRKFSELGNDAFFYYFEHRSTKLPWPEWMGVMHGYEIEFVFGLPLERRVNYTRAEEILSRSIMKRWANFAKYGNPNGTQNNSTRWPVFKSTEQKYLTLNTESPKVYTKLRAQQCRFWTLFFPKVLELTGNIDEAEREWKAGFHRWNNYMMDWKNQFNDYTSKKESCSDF
Cholinesterase (Homo sapiens, UniProt P06276), sequence (P06276 whole entry): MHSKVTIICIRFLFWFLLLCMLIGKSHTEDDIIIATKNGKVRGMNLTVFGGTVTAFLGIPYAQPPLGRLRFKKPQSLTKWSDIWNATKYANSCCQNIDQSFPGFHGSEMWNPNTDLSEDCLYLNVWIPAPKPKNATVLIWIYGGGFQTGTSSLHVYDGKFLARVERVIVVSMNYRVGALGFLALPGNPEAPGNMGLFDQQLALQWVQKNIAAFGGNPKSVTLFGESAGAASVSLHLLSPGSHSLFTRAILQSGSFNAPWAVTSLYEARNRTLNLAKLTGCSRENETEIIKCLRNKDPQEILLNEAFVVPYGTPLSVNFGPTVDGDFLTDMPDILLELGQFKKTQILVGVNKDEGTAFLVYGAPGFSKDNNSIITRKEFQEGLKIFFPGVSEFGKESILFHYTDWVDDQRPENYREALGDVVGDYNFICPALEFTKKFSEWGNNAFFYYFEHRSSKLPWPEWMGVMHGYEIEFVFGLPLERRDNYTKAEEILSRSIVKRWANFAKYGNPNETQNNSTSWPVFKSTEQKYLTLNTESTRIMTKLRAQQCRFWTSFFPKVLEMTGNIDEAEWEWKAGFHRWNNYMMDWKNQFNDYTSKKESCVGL
Acetylcholinesterase (Electrophorus electricus), sequence (O42275 24-633 limits assumed): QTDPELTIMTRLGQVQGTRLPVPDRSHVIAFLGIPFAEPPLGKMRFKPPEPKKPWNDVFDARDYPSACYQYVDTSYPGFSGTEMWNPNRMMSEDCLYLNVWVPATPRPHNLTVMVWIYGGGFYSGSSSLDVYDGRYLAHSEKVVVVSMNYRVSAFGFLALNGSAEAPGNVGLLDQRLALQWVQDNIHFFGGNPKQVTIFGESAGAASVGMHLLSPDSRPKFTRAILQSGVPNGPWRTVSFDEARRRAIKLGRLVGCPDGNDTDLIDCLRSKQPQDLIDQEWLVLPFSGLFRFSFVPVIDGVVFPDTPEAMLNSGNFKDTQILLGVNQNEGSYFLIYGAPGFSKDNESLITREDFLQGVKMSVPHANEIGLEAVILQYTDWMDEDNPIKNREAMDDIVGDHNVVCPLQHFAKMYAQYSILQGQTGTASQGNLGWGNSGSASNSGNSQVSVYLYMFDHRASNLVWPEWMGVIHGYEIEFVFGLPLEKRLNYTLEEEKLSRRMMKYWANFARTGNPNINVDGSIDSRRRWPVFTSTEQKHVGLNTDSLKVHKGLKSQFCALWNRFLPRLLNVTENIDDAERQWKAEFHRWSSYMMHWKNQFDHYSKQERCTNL
Acetylcholinesterase (Homo sapiens, UniProt P22303), sequence (P22303 whole entry): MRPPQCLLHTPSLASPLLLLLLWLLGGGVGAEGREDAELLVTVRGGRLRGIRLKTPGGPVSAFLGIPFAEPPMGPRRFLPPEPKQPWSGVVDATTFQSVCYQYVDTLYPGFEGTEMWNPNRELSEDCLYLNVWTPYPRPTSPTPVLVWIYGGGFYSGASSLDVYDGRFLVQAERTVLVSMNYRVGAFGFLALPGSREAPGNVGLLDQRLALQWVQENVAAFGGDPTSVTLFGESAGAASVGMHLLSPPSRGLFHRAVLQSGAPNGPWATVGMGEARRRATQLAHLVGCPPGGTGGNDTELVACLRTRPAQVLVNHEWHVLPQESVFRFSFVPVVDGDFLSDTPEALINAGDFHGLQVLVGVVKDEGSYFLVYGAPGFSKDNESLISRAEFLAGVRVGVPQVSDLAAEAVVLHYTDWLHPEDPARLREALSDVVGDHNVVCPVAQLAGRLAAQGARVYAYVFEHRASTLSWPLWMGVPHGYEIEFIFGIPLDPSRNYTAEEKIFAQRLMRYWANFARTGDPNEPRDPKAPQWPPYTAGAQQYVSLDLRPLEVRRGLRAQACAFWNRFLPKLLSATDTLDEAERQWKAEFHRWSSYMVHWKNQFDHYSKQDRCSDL

In test [1], `COc1ccc(/C(C)=N/NC(=O)C2CC(c3ccccc3)=NO2)cc1OC` (centres undefined) returned an IC50 of 5.9 nM.

Turning to `O=C(/C=C/c1cccc(F)c1)c1ccc(N2CCOCC2)cc1`, the IC50 was 87 nM in [2] and 45000 nM in [3].

Consider `CCCCOc1ccc(C2=NN(C(N)=S)C(c3ccccc3)C2)cc1` (centres undefined), for which the IC50 was 3630 nM in test [4] and 380 nM in test [5]. Also, the Ratio IC50 in test [6] was 9.55.

With `CCOc1ccc([N+](=O)[O-])c(N/N=C/c2ccc(C(F)(F)F)cc2)n1`, the IC50 in [7] was 13100 nM.

With `C#CCOc1ccc(-c2cc(-c3ccc(OCCN4CCOCC4)cc3)nc(N)n2)cc1`, the 50% inhibitory concentration (IC50) was 18.3 nM in [8], 666 nM in test [9] and 30.5 nM in test [10].

Take `Cc1c(Cl)c(=O)oc2cc(OCCCCSC(=S)N3C(C)CCCC3C)ccc12` (centres undefined): the IC50 came out at 114 nM in test [11] and 101 nM in [12].

For the compound `CN(C)c1ccc(/C=C/C(=O)c2cc(Cl)sc2Cl)cc1`, the results for the IC50 in [13] and in test [14] were 1990 nM and 40 nM, respectively. Further, the Ratio IC50 in test [6] is 0.02.

As for `O=c1oc2c(O)c(O)ccc2cc1-c1ccc(O)c(O)c1`, the IC50 came to 8370 nM in [15], 27000 nM in test [16] and 3040 nM in [17].

As for `O=c1cc(OCCN2CCOCC2)c2ccccc2o1`, the IC50 in [18] worked out at 372 nM.

Consider `Cc1c(/N=C/c2ccc(O)cc2)c(=O)n(-c2ccccc2)n1C`, for which the IC50 in test [19] worked out at 114 nM.

Turning to `O=c1ccc2ccc(OCCN3CCCCC3)cc2o1`, the inhibition in test [20] is 30.9%.

`Cn1ccc2cc(C(=S)Nc3ccc(F)cc3)ccc21`: the concentration for half-maximal inhibition (IC50) in test [21] was 28 nM.

On to `COc1cc(-c2cc(=O)c3c(O)cc(O)cc3o2)cc(OC)c1O` [TRICIN], for which the half-inhibitory concentration (IC50) in [7] was found to be 250 nM.

As for `O=c1c(O)c(-c2cc(O)c(O)c(O)c2)oc2cc(O)cc(O)c12` [MYRICETIN], in test [7], the IC50 was determined as 9930 nM.
